Source: patent publication US6992215B2, “Thiol-based NAALADase inhibitors” (Guildford Pharmaceuticals Inc., priority 2001, dated 2006)

Legend:
cortical cell cultures = assay: In Vitro Assay on Ischemia (glutamate toxicity after potassium cyanide / 2-deoxyglucose insult); assay type: cell-based; settings: concentration required to cause a 50% reduction in glutamate toxicity following an ischemic insult
Method: To examine the in vitro effect of the inventive compounds on ischemia, cortical cell cultures were treated with various compounds of this invention during an ischemic insult utilizing potassium cyanide and 2-deoxyglucose, and for one hour thereafter. For a description of the experimental method used, see Vornov et al., J. Neurochem., Vol. 65, No. 4, pp. […] (1995).

[1] = tested on: chronic constrictive injury-induced rats; assay: Neuropathic pain in CCI model (sciatic nerve ligation, thermal hyperalgesia); assay type: in vivo; settings: 10, 1 or 0.1 mg/kg for 15 days after sciatic nerve ligation, FIGS. 13-15
Method: Sciatic nerve ligation, consisting of 4 ligatures tied loosely around the sciatic nerve at 1 mm intervals proximal to the nerve trifurcation, was performed on rats. […] The rats were habituated to a Hargreaves apparatus. An infrared heat source was directed onto the dorsal surface of each rat's hindpaws and the time taken for the rat to withdraw its paws was noted. The difference in scores between the latency of the response for the paw on the operated side versus the paw on the unoperated control side was determined.
The rats were treated with either Compound 49 (10, 1 or 0.1 mg/kg) or a vehicle for 15 days after sciatic nerve ligation. Thermal pain responses were measured at days 0, 1, 5, 8, 11 and 15. The differences in scores for the rats treated with a vehicle and the rats treated with Compound 49 are graphically presented in FIGS. 13-15.
The rats were treated with either Compound 5 (50, 30, 10, 3, 1 or 0.3 mg/kg) or a vehicle for 12 (or 15) days after sciatic nerve ligation. Thermal pain responses were measured at days 0, 1, 5, 8 and 12 (and 15). The differences in scores for the rats treated with a vehicle and the rats treated with Compound 5 are graphically presented in FIGS. 17-22.
The rats received either Compound C (50 mg/kg i.p. daily) or a vehicle starting 10 days post surgery. […] Normal (unoperated) rats had approximately equal latencies for both paws. This effect was significant starting at 11 days of drug treatment and persisted through to the end of the study (for 21 days of daily dosing).

O=C(O)c1ccc(CC(CCCS)C(=O)O)cc1 (stereo not drawn) [Compound 6, 4-carboxy-alpha-(3-mercaptopropyl)-benzenepropanoic acid]
EC50 (cortical cell cultures): 17.8 nM

CS(=O)(=O)c1ccc(CC(CCCS)C(=O)O)cc1 (stereo not drawn) [Compound 7, alpha-(3-mercaptopropyl)-4-(methylsulfonyl)-benzenepropanoic acid]
EC50 (cortical cell cultures): 1060 nM

N#Cc1ccccc1CC(CCCS)C(=O)O (stereo not drawn) [Compound 8, 2-cyano-alpha-(3-mercaptopropyl)-benzenepropanoic acid]
EC50 (cortical cell cultures): 133 nM

O=C(O)c1cc(CC(CCCS)C(=O)O)cc(C(=O)O)c1 (stereo not drawn) [Compound 9, 5-(2-carboxy-5-mercaptopentyl)-1,3-benzenedicarboxylic acid]
EC50 (cortical cell cultures): 104 nM

O=C(O)c1ccc(Cl)c(CC(CCCS)C(=O)O)c1 (stereo not drawn) [Compound 10, 5-carboxy-2-chloro-alpha-(3-mercaptopropyl)-benzenepropanoic acid]
EC50 (cortical cell cultures): 7.7 nM

O=C(O)c1cc(CC(CCCS)C(=O)O)ccc1F (stereo not drawn) [Compound 11, 3-carboxy-4-fluoro-alpha-(3-mercaptopropyl)-benzenepropanoic acid]
EC50 (cortical cell cultures): 15.4 nM

N#Cc1ccccc1-c1ccc(CC(CCCS)C(=O)O)cc1 (stereo not drawn) [Compound 12, 4-(2-cyanophenyl)-alpha-(3-mercaptopropyl)-benzenepropanoic acid]
EC50 (cortical cell cultures): 188 nM

NC(=O)c1ccccc1CC(CCCS)C(=O)O (stereo not drawn) [Compound 13, 2-(aminocarbonyl)-alpha-(3-mercaptopropyl)-benzenepropanoic acid]
EC50 (cortical cell cultures): 10000 nM

O=C(O)c1cccc(OC(CCCS)C(=O)O)c1 (stereo not drawn) [Compound 14, 3-(1-carboxy-4-mercaptobutoxy)-benzoic acid]
EC50 (cortical cell cultures): 16 nM

O=C(O)C(CCCS)Oc1ccccc1 (stereo not drawn) [Compound 15, 5-mercapto-2-phenoxy-pentanoic acid]
EC50 (cortical cell cultures): 1000 nM

COc1cc(OC)cc(OC(CCCS)C(=O)O)c1 (stereo not drawn) [Compound 16, 2-(3,5-dimethoxyphenoxy)-5-mercapto-pentanoic acid]
EC50 (cortical cell cultures): 267 nM

O=C(O)Cc1cccc(OC(CCCS)C(=O)O)c1 (stereo not drawn) [Compound 20, 3-(1-carboxy-4-mercaptobutoxy)-benzeneacetic acid]
EC50 (cortical cell cultures): 39.3 nM

O=C(O)Cc1ccc(OC(CCCS)C(=O)O)cc1 (stereo not drawn) [Compound 21, 4-(1-carboxy-4-mercaptobutoxy)-benzeneacetic acid]
EC50 (cortical cell cultures): 11.6 nM

CC(=O)c1cccc(OC(CCCS)C(=O)O)c1 (stereo not drawn) [Compound 23, 2-(3-acetylphenoxy)-5-mercapto-pentanoic acid]
EC50 (cortical cell cultures): 21 nM

CC(=O)Nc1ccc(CC(CCCS)C(=O)O)cc1 (stereo not drawn) [Compound 26, 4-(acetylamino)-alpha-(3-mercaptopropyl)-benzenepropanoic acid]
EC50 (cortical cell cultures): 1800 nM

COc1ccc(C(=O)O)cc1OC(CCCS)C(=O)O (stereo not drawn) [Compound 27, 3-(1-carboxy-4-mercaptobutoxy)-4-methoxy-benzoic acid]
EC50 (cortical cell cultures): 155 nM

O=C(O)Cc1ccc(CC(CCCS)C(=O)O)cc1 (stereo not drawn) [Compound 28, 4-(carboxymethyl)-alpha-(3-mercaptopropyl)-benzenepropanoic acid]
EC50 (cortical cell cultures): 48 nM

O=C(O)c1ccc(OC(CCCS)C(=O)O)cc1 (stereo not drawn) [Compound 30, 4-(1-carboxy-4-mercaptobutoxy)-benzoic acid]
EC50 (cortical cell cultures): 399 nM

O=C(O)c1cccc(CC(CCCS)C(=O)O)c1Cl (stereo not drawn) [Compound 31, 3-carboxy-2-chloro-alpha-(3-mercaptopropyl)-benzenepropanoic acid]
EC50 (cortical cell cultures): 31 nM

O=C(O)c1cc(CC(CCCS)C(=O)O)ccc1Cl (stereo not drawn) [Compound 32, 3-carboxy-4-chloro-alpha-(3-mercaptopropyl)-benzenepropanoic acid]
EC50 (cortical cell cultures): 7 nM

O=C(O)c1ccc(Cl)c(OC(CCCS)C(=O)O)c1 (stereo not drawn) [Compound 33, 3-(1-carboxy-4-mercaptobutoxy)-4-chloro-benzoic acid]
EC50 (cortical cell cultures): 110 nM

O=C(O)c1ccc(F)c(OC(CCCS)C(=O)O)c1 (stereo not drawn) [Compound 34, 3-(1-carboxy-4-mercaptobutoxy)-4-fluoro-benzoic acid]
EC50 (cortical cell cultures): 346 nM

O=C(O)c1ccc(F)c(CC(CCCS)C(=O)O)c1 (stereo not drawn) [Compound 35, 5-carboxy-2-fluoro-alpha-(3-mercaptopropyl)-benzenepropanoic acid]
EC50 (cortical cell cultures): 23 nM

COc1ccc(C(=O)O)cc1CC(CCCS)C(=O)O (stereo not drawn) [Compound 36, 5-carboxy-alpha-(3-mercaptopropyl)-2-methoxy-benzenepropanoic acid]
EC50 (cortical cell cultures): 74.9 nM

O=C(O)c1ccc(CC(CCCS)C(=O)O)c2ccccc12 (stereo not drawn) [Compound 37, 4-carboxy-alpha-(3-mercaptopropyl)-1-naphthalenepropanoic acid]
EC50 (cortical cell cultures): 215 nM

O=C(O)c1ccccc1CC(CCCS)C(=O)O (stereo not drawn) [Compound 38, 2-carboxy-alpha-(3-mercaptopropyl)-benzenepropanoic acid]
EC50 (cortical cell cultures): 762 nM

O=C(O)c1c(F)c(F)c(CC(CCCS)C(=O)O)c(F)c1F (stereo not drawn) [Compound 39, 4-carboxy-2,3,5,6-tetrafluoro-alpha-(3-mercaptopropyl)-benzenepropanoic acid]
EC50 (cortical cell cultures): 290 nM

O=C(O)C(CCCS)Sc1ccccc1 (stereo not drawn) [Compound 40, 5-mercapto-2-(phenylthio)-pentanoic acid]
EC50 (cortical cell cultures): 452 nM

O=C(O)C(CCCS)Cc1ccccc1Cl (stereo not drawn) [Compound 43, 2-chloro-alpha-(3-mercaptopropyl)-benzenepropanoic acid]
EC50 (cortical cell cultures): 452 nM

O=C(O)c1cc(Br)cc(CC(CCCS)C(=O)O)c1 (stereo not drawn) [Compound 45, 3-bromo-5-carboxy-alpha-(3-mercaptopropyl)-benzenepropanoic acid]
EC50 (cortical cell cultures): 2 nM

O=C(O)CNC(=O)c1cccc(CC(CCCS)C(=O)O)c1 (stereo not drawn) [Compound 46, 3-[[(carboxymethyl)amino]carbonyl]-alpha-(3-mercaptopropyl)-benzenepropanoic acid]
EC50 (cortical cell cultures): 544 nM

O=C(O)c1ccc(CC(CCCS)C(=O)O)cc1Br (stereo not drawn) [Compound 47, 3-bromo-4-carboxy-alpha-(3-mercaptopropyl)-benzenepropanoic acid]
EC50 (cortical cell cultures): 119 nM

O=C(O)c1cc(CC(CCCS)C(=O)O)cc([N+](=O)[O-])c1 (stereo not drawn) [Compound 48, 3-carboxy-alpha-(3-mercaptopropyl)-5-nitro-benzenepropanoic acid]
EC50 (cortical cell cultures): 2.4 nM

CC(C)(C)c1cc(CC(CCCS)C(=O)O)cc(C(=O)O)c1 (stereo not drawn) [Compound 49, 3-carboxy-5-(1,1-dimethylethyl)-alpha-(3-mercaptopropyl)-benzenepropanoic acid]
difference in scores between the operated and unoperated paws [1]: normalized the difference in scores

O=C(O)c1ccc([N+](=O)[O-])c(CC(CCCS)C(=O)O)c1 (stereo not drawn) [Compound 50, 5-carboxy-alpha-(3-mercaptopropyl)-2-nitro-benzenepropanoic acid]
EC50 (cortical cell cultures): 26 nM

O=C(O)c1cc(CC(CCCS)C(=O)O)cc(-c2ccccc2)c1 (stereo not drawn) [Compound 55, 5-(2-carboxy-5-mercaptopentyl)-[1,1′-biphenyl]-3-carboxylic acid]
EC50 (cortical cell cultures): 1 nM

O=C(O)c1ccc(-c2ccccc2)c(CC(CCCS)C(=O)O)c1 (stereo not drawn) [Compound 56]
EC50 (cortical cell cultures): 11 nM

O=C(O)c1cccc(CC(CCCS)C(=O)O)c1-c1ccccc1 (stereo not drawn) [Compound 57, 6-(2-carboxy-5-mercaptopentyl)-[1,1′-biphenyl]-2-carboxylic acid]
EC50 (cortical cell cultures): 21 nM

O=C(O)c1cc(CC(CCCS)C(=O)O)ccc1-c1ccccc1 (stereo not drawn) [Compound 58, 4-(2-carboxy-5-mercaptopentyl)-[1,1′-biphenyl]-2-carboxylic acid]
EC50 (cortical cell cultures): 16 nM
